Among the data in patent publication US20110269763A1, “CRTH2 receptor ligands for medicinal uses” (7TM Pharma A/S, priority 2004, published 2011) are IC50 values, retold here.

The target of assay [1] is T1, human CRTH2 (Homo sapiens, UniProt Q9Y5Y4, V204A).
T1 sequence (Q9Y5Y4 1-395 V204A): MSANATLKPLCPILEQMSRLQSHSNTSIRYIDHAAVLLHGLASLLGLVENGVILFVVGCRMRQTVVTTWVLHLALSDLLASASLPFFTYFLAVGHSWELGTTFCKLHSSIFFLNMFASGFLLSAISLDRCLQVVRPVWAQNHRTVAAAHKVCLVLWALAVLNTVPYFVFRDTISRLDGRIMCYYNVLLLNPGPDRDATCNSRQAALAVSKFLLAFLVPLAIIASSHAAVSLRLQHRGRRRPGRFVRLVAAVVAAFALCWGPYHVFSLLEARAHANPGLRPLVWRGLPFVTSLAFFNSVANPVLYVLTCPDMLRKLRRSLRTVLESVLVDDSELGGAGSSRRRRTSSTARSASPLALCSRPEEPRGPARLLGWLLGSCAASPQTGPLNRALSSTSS
The experiment in a line: Functional antagonist BRET assay on HEK293 cells stably expressing human CRTH2-Rluc and GFP2-β-arr2. The format is cell-based. Also noted: expressed in transfected cells. The settings on record: read-out: Antag. IC50. An outline of the steps:
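Cells (2×10^6/mL in D-PBS with glucose) were preincubated 15 min with antagonist at 1% DMSO, then agonist and DeepBlueC were co-injected. Emission at 400 and 515 nm was read 5 s later, and the mBRET ratio (515/400 nm) was used to derive IC50 from concentration–response curves.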
(Bioluminescence resonance energy transfer reports proximity on the nanometre scale.)

For assay [2], the target named is T1, human CRTH2. The experiment in a line: Receptor binding assay: [3H]PGD2 competition binding on whole COS-7 cells transiently transfected with CRTH2 (also stable HEK293 cells). The arrangement: expressed in transfected cells; host or cells: COS-7 (transient, calcium phosphate). In outline:
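Whole COS-7 cells transiently transfected with human CRTH2 (calcium phosphate), or stable HEK293 cells, competed against 0.1 nM [3H]PGD2 in HBSS/10 mM HEPES with 1% DMSO, 3 h at 4 °C. Nonspecific binding with 10 μM PGD2; scintillation counting, duplicates. IC50 from curve fitting.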

[3] abbreviates: BRET, antagonist incubated 15 minutes prior to agonist.
[4] abbreviates: competition with 0.1 nM [3H]PGD2, whole cells, 3 h at 4° C.
Setting [5] is: functional antagonist assay, Table 3.
Setting [6] is: receptor binding assay, Table 3.

SMILES strings stand for the structures.

In the case of `O=C(O)COc1ccc(Br)cc1C(=O)c1cnn(-c2ccccn2)c1` [D6, 4-Bromo-2-(1-pyridin-2-yl-1H-pyrazole-4-carbonyl)phenoxyacetic acid], the IC50 on human CRTH2 [1] (setting [3]) and on human CRTH2 [2] (setting [4]) was under 500 nM each time.

On to `O=C(O)COc1ccc(Br)cc1C(=O)c1cnn(-c2cccc(Br)c2)c1` [D24, 4-Bromo-2-[1-(3-bromophenyl)-1H-pyrazole-4-carbonyl]phenoxyacetic acid], for which the half-inhibitory concentration (IC50) on human CRTH2 [1] (setting [3]) and on human CRTH2 [2] (setting [4]) was under 500 nM each time.

With `COc1cccc(Cc2noc(-c3cc(Br)ccc3OCC(=O)O)n2)c1` [D125, {4-Bromo-2-[3-(3-methoxybenzyl)-[1,2,4]oxadiazol-5-yl]phenoxy}acetic acid], the IC50 at human CRTH2 [1] (setting [5]) was over 5000 nM; at human CRTH2 [2] (setting [6]), under 500 nM.

As for `O=C(O)COc1ccc(Br)cc1C(=O)c1cnn(-c2ccc(Br)cc2)c1` [D16, 4-Bromo-2-[1-(4-bromophenyl)-1H-pyrazole-4-carbonyl]phenoxyacetic acid], the IC50 at human CRTH2 [1] (setting [3]) and at human CRTH2 [2] (setting [4]) was under 500 nM throughout.

Regarding `O=C(O)COc1ccc(Br)cc1C(=O)c1cnn(-c2c(Cl)cccc2Cl)c1` [D29, 4-Bromo-2-[1-(2,6-dichlorophenyl)-1H-pyrazole-4-carbonyl]phenoxyacetic acid], the IC50 at human CRTH2 [1] (setting [3]) and at human CRTH2 [2] (setting [4]) was under 500 nM throughout.

In the case of `O=C(O)COc1ccc(Br)cc1-c1noc(-c2ccccc2)n1` [D138, [4-Bromo-2-(5-phenyl-[1,2,4]oxadiazol-3-yl)phenoxy]acetic acid], the IC50 is over 5000 nM on human CRTH2 [1] (setting [3]) and under 500 nM on human CRTH2 [2] (setting [4]).

Take `O=C(O)COc1ccc(Br)cc1-c1nc(Cc2ccc(OC(F)(F)F)cc2)no1` [D113, {4-Bromo-2-[3-(4-trifluoromethoxy-benzyl)-[1,2,4]oxadiazol-5-yl]-phenoxy}-acetic acid]: the half-inhibitory concentration (IC50) on human CRTH2 [1] (setting [5]) and at human CRTH2 [2] (setting [6]) was under 500 nM each time.

`COc1ccccc1-n1cc(C(=O)c2cc(Br)ccc2OCC(=O)O)cn1` [D60, {4-Bromo-2-[1-(2-methoxyphenyl)-1H-pyrazole-4-carbonyl]phenoxy}acetic acid]: the IC50 at human CRTH2 [1] (setting [3]) and on human CRTH2 [2] (setting [4]) was under 500 nM throughout.

Consider `O=C(O)COc1ccc(Br)cc1-c1coc(Cc2ccc(F)cc2Cl)n1` [D90, {4-Bromo-2-[2-(2-chloro-4-fluorobenzyl)oxazol-4-yl]phenoxy}acetic acid], for which the IC50 on human CRTH2 [1] (setting [3]) and on human CRTH2 [2] (setting [4]) was under 500 nM in each case.

On to `CC(Oc1ccc(Br)cc1C(=O)c1cnn(-c2ccccc2Cl)c1)C(=O)O` (stereo not drawn) [D38, 2-{4-Bromo-2-[1-(2-chlorophenyl)-1-H-pyrazole-4-carbonyl]phenoxy}propionic acid], for which the 50% inhibitory concentration (IC50) at human CRTH2 [1] (setting [3]) and at human CRTH2 [2] (setting [4]) was under 500 nM each time.

Take `O=C(O)COc1ccc(Br)cc1-c1nc(-c2ccc(F)cc2)no1` [D100, {4-Bromo-2-[3-(4-fluoro-phenyl)-[1,2,4]oxadiazol-5-yl]phenoxy}acetic acid]: the half-inhibitory concentration (IC50) on human CRTH2 [1] (setting [5]) and on human CRTH2 [2] (setting [6]) was under 500 nM throughout.

Turning to `O=C(O)COc1ccc(Br)cc1C=NNc1nncc(-c2ccccc2)n1` [D152], the IC50 is 500 to 5000 nM on human CRTH2 [1] (setting [3]) and under 500 nM on human CRTH2 [2] (setting [4]).

For the compound `O=C(O)COc1ccc(Br)cc1-c1nc(Cc2ccccc2C(F)(F)F)no1` [D127, {4-Bromo-2-[3-(2-trifluoromethylbenzyl)-[1,2,4]oxadiazol-5-yl]phenoxy}-acetic acid], the half-inhibitory concentration (IC50) at human CRTH2 [1] (setting [5]) and at human CRTH2 [2] (setting [6]) was under 500 nM each time.

On to `O=C(O)COc1ccc([N+](=O)[O-])cc1C(=O)c1cnn(-c2ccccc2)c1` [D20, 4-Nitro-2-(1-phenyl-1H-pyrazole-4-carbonyl)phenoxyacetic acid], for which the half-maximal inhibitory concentration (IC50) on human CRTH2 [1] (setting [3]) and at human CRTH2 [2] (setting [4]) was under 500 nM in each case.

As for `O=C(O)COc1ccc(Br)cc1C(=O)c1cnn(-c2c(Cl)cc(Cl)cc2Cl)c1` [D35, 4-Bromo-2-[1-(2,4,6-trichlorophenyl)-1H-pyrazole-4-carbonyl]phenoxyacetic acid], the half-maximal inhibitory concentration (IC50) at human CRTH2 [1] (setting [3]) and on human CRTH2 [2] (setting [4]) was under 500 nM each time.

For `O=C(O)COc1ccc(Br)cc1-c1nc(C2(c3ccccc3)CC2)no1` [D132, {4-Bromo-2-[3-(1-phenylcyclopropyl)-[1,2,4]oxadiazol-5-yl]phenoxy}acetic acid], the IC50 at human CRTH2 [1] (setting [3]) and on human CRTH2 [2] (setting [4]) was under 500 nM in each case.

With `O=C(O)COc1ccc(Br)cc1-c1nc(Cc2ccc(Cl)cc2Cl)no1` [D122, {4-Bromo-2-[3-(2,4-dichloro-benzyl)-[1,2,4]oxadiazol-5-yl]-phenoxy}-acetic acid], the IC50 at human CRTH2 [1] (setting [5]) and on human CRTH2 [2] (setting [6]) was under 500 nM each time.

`CC(Oc1ccc(Br)cc1C(=O)c1cnn(-c2ccc(Cl)c(Cl)c2)c1)C(=O)O` (stereo not drawn) [D64, 2-{4-Bromo-2-[1-(3,4-dichloro-phenyl)-1H-pyrazole-4-carbonyl]phenoxy}propionic acid]: the IC50 on human CRTH2 [1] (setting [3]) and at human CRTH2 [2] (setting [4]) was under 500 nM throughout.

Consider `O=C(O)COc1ccc(Br)cc1CN1CC(=O)N(Cc2ccc(Cl)cc2)C1=O` [D139, 4-Bromo-2-[3-(4-chlorobenzyl)-2,4-dioxoimidazolidin-1-ylmethyl]phenoxyacetic acid], for which the half-maximal inhibitory concentration (IC50) at human CRTH2 [1] (setting [3]) and at human CRTH2 [2] (setting [4]) was under 500 nM each time.

As to `O=C(O)COc1ccc(Br)cc1-c1nc(-c2ccc(Oc3ccccc3)cc2)no1` [D111, {4-Bromo-2-[3-(4-phenoxy-phenyl)-[1,2,4]oxadiazol-5-yl]-phenoxy}-acetic acid], the half-maximal inhibitory concentration (IC50) on human CRTH2 [1] (setting [5]) and at human CRTH2 [2] (setting [6]) was under 500 nM in each case.

As to `O=C(O)COc1ccc(Br)cc1-c1nc(-c2ccc(Cl)cc2Cl)no1` [D129, {4-Bromo-2-[3-(2,4-dichlorophenyl)-[1,2,4]oxadiazol-5-yl]phenoxy}acetic acid], the half-inhibitory concentration (IC50) on human CRTH2 [1] (setting [5]) and at human CRTH2 [2] (setting [6]) was under 500 nM each time.

With `O=C(O)COc1ccc(Br)cc1-c1noc(-c2cccc(Cl)c2)n1` [D136, {4-Bromo-2-[5-(3-chlorophenyl)-[1,2,4]oxadiazol-3-yl]phenoxy}acetic acid], the IC50 at human CRTH2 [1] (setting [3]) and on human CRTH2 [2] (setting [4]) was under 500 nM each time.

Take `CCc1ccccc1-n1cc(C(=O)c2cc(Br)ccc2OCC(=O)O)cn1` [D18, 4-Bromo-2-[1-(2-ethylphenyl)-1H-pyrazole-4-carbonyl]phenoxyacetic acid]: the half-maximal inhibitory concentration (IC50) at human CRTH2 [1] (setting [3]) and on human CRTH2 [2] (setting [4]) was under 500 nM in each case.

Regarding `O=C(O)COc1ccc(Br)cc1-c1noc(-c2ccc(Cl)cc2)n1` [D135, {4-Bromo-2-[5-(4-chlorophenyl)-[1,2,4]oxadiazol-3-yl]phenoxy}acetic acid], the half-inhibitory concentration (IC50) at human CRTH2 [1] (setting [3]) and on human CRTH2 [2] (setting [4]) was under 500 nM throughout.

Turning to `COc1ccccc1-n1cc(C(=O)c2cc(Br)ccc2OC(C)C(=O)O)cn1` (stereo not drawn) [D65, 2-{4-Bromo-2-[1-(2-methoxyphenyl)-1H-pyrazole-4-carbonyl]phenoxy}propionic acid], the half-inhibitory concentration (IC50) at human CRTH2 [1] (setting [3]) and at human CRTH2 [2] (setting [4]) was under 500 nM throughout.

Take `CCc1cccc(CC)c1-n1cc(C(=O)c2cc(Br)ccc2OC(C)C(=O)O)cn1` (stereo not drawn) [D78, 2-{4-Bromo-2-[1-(2,6-diethylphenyl)-1H-pyrazole-4-carbonyl]phenoxy}propionic acid]: the IC50 on human CRTH2 [1] (setting [3]) and on human CRTH2 [2] (setting [4]) was under 500 nM in each case.

As to `O=C(O)COc1ccc(Br)cc1C(=O)c1cnn(-c2ccccc2Oc2ccccc2)c1` [D43, {4-Bromo-2-[1-(2-phenoxyphenyl)-1H-pyrazole-4-carbonyl]phenoxy}acetic acid], the 50% inhibitory concentration (IC50) on human CRTH2 [1] (setting [3]) and on human CRTH2 [2] (setting [4]) was under 500 nM throughout.

Usually IC50 stands for the concentration that inhibits the measured activity by half.
